A melting point compilation (Tetko et al.)

Row | melting point [°C] | Compound
1 | 247 to 249 | O=C(COc1ccccc1)Nc1cc(Cl)ccc1C(=O)O
2 | 58 to 60 | COCCOc1ncccc1C(=O)O
3 | 240 to 242 | O=C(O)CC1Sc2ccc(Cl)cc2NC1=O (configuration not stated)
4 | 22 to 23 | Clc1ccncc1Cl
5 | 135 to 137 | Sc1nnc(COc2ccccc2Cl)o1
6 | 174 to 176 | NS(=O)(=O)c1c(Cl)nc2ccccn12
7 | 74 to 76 | COc1ccc(-c2nc(CO)cs2)cc1
8 | 174 to 176 | CC(CO)NC(=O)c1ccc(N)cc1 (configuration not stated)
9 | 37 to 39 | Cc1nnc(-c2ccccc2F)o1
10 | 48 to 50 | CCOC(=O)c1cnccn1
11 | 188 to 190 | CC(=O)NCc1ccc(C(=O)O)cc1
12 | 163 to 165 | CC1(c2ccc(C(N)=O)cc2)NC(=O)NC1=O (configuration not stated)
13 | 77 to 79 | CC1CC(N)C(=O)N1c1ccccc1 (configuration not stated)
14 | 144 to 146 | O=C(O)c1cc(S(=O)(=O)Cl)c(F)cc1Cl
15 | 54 to 56 | NC(=S)CO
16 | 238 to 240 | NC(CC(=O)O)c1ccc(-c2ccccc2)cc1 (configuration not stated)
17 | 160 to 162 | Nc1ccccc1NCCCn1ccnc1
18 | 59 to 61 | COCCNc1nnnn1C
19 | 194 to 196 | CCOC(=O)c1cc2c(F)cc(Br)cc2[nH]1
20 | 125 to 127 | O=C(CCl)Nc1cc([N+](=O)[O-])ccc1F
21 | 223 to 225 | Cn1ccnc1SCC(=O)Nc1cc(C(=O)O)ccc1Cl
22 | 189 to 191 | CC(C)c1nnc(NC(=O)OCC(F)(F)F)s1
23 | 128 to 130 | CC(CC(N)=S)n1cc(Cl)cn1 (configuration not stated)
24 | 87 to 89 | COc1ccc(C)nc1N

Row | melting point [°C] | Compound
25 | 94 to 96 | Cc1nc(-c2cccc(NC(=O)OCC(F)(F)F)c2)cs1
26 | 275 to 277 | Nc1nc2cnccc2s1
27 | 243 to 245 | NC(=O)c1ccc(S(N)(=O)=O)cc1
28 | 99 to 101 | O=C(NCc1ccccc1)c1ccnc(Cl)c1
29 | 77 to 79 | Nc1ccc(Sc2ccccc2Cl)cc1
30 | 84 to 86 | CC(N)(C(N)=O)c1cccc(C(F)(F)F)c1 (configuration not stated)
31 | 179 to 181 | COc1cc(Cl)c(C(=O)O)cc1OC
32 | 137 to 139 | N#Cc1cc(N)ccc1N1CCC(O)CC1
33 | 154 to 156 | CSc1nc(Cl)cc(NN)n1
34 | 140 to 142 | COc1ccc2c(ccn2CC(=O)O)c1
35 | 223 to 225 | NC(=O)C1Cc2cc(S(N)(=O)=O)ccc2O1 (configuration not stated)
36 | 47 to 49 | O=C(c1cccnc1)c1cccc(Cl)c1
37 | 179 to 181 | NS(=O)(=O)c1cc(Cl)ccc1Cl
38 | 107 to 109 | Cc1cnc(-c2cccc(N)c2)o1
39 | 101 to 103 | COc1ccc2cc(N)ccc2n1
40 | 145 to 147 | COc1ccc(C(=O)NC2CCS(=O)(=O)C2)cc1N (configuration not stated)
41 | 109 to 111 | COc1ccc(NC(=O)C(C)Cl)cc1OC (configuration not stated)
42 | 150 to 152 | NC(=O)N1CCN(c2ccccc2F)CC1
43 | 60 to 62 | CN(C)c1ccc(Cn2nccc2N)cc1
44 | 227 to 229 | Cc1cc(C)n2ncc(C(N)=NO)c2n1
45 | 68 to 70 | CCCc1cc(N)n(C)n1
46 | 85 to 87 | COc1ccc(C(=O)CCl)cc1Br
47 | 124 to 126 | NC(=O)c1cc(Oc2cccc(O)c2)ccn1
48 | 239 to 241 | N#Cc1ccc(C(=O)O)[nH]1

Row | melting point [°C] | Compound
49 | 159 to 161 | Cc1oc(Cn2cc(Br)cn2)cc1C(=O)O
50 | 249 to 251 | Cc1cnc2c(c1)NC(=O)CN2
51 | 268 to 270 | Nc1nc(-c2ccc(O)cc2)n[nH]1
52 | 59 to 61 | O=S(=O)(Cl)c1ccc(OCCBr)cc1
53 | 108 to 110 | Cc1nn2cc(CCCO)cnc2c1C
54 | 162 to 164 | CCC(C)(NC(=O)c1ccccc1)C(N)=S (configuration not stated)
55 | 60 to 62 | COc1cccc(SCC(=O)O)c1
56 | 254 to 256 | NC(=O)c1ncn2c(C(=O)O)cc(-c3ccccc3)nc12
57 | 105 to 107 | Cc1ccccc1CNC(=O)CCl
58 | 113 to 115 | CNC(=O)C1CN(Cc2ccccc2)CCO1 (configuration not stated)
59 | 84 to 86 | NCc1csc(CNC(=O)c2ccccc2)n1
60 | 179 to 181 | Cc1nc(CCC(=O)O)oc1-c1ccc(Br)cc1
61 | 115 to 117 | CSc1ccccc1CC(=O)O
62 | 127 to 129 | CC(C)(C)c1ccc(C(O)CCC(=O)O)cc1 (configuration not stated)
63 | 55 to 57 | CCC(CC)C(N)=S
64 | 186 to 188 | NS(=O)(=O)Cc1cc(Cl)ccc1F
65 | 118 to 120 | COc1ccc(CCl)cc1S(C)(=O)=O
66 | 248 to 250 | O=C(O)c1nn(-c2ccc(Cl)cc2)cc1O
67 | 84 to 86 | O=C(O)CCC(=O)c1ccc(F)c(F)c1
68 | 94 to 96 | Nc1cccc(Br)c1CO
69 | 202 to 204 | O=C(NC(Cc1ccccc1)C(=O)O)c1cccs1 (configuration not stated)
70 | 180 to 182 | COC(=O)c1nc[nH]n1
71 | 143 to 145 | Nc1nc2c(Cl)cccc2[nH]1
72 | 82 to 84 | CCC(=O)c1ccc(C(=O)OC)cc1

More lines, now with the values behind:

Row | Compound | melting point [°C]
73 | O=C(O)c1cc(=O)[nH]c2cc(F)ccc12 | 323 to 325
74 | NNc1ncnc2nc[nH]c12 | 235 to 237
75 | Cc1cc(N)ccc1NC(=O)c1ccco1 | 173 to 175
76 | Cc1noc(C)c1COc1ccc(CC(=O)O)cc1 | 138 to 140
77 | CCCCn1c2c(c(=O)n(C)c1=O)C(CC(=O)O)C(=O)N2 (configuration not stated) | 229 to 231
78 | O=c1[nH]c(-c2ccncc2)cs1 | 303 to 305
79 | N#CCC1=NC(=O)CS1 | 183 to 185
80 | Nc1ccc(CC2CC(=O)NC2=O)cc1 (configuration not stated) | 138 to 140
81 | O=C(O)c1cc([N+](=O)[O-])c[nH]1 | 198 to 200
82 | Nc1ccc2ccn(Cc3ccccc3)c2c1 | 119 to 121
83 | O=C(O)Cc1ccc2c(c1)CCCC2 | 78 to 80
84 | O=C(O)c1cc(F)ccc1-n1ccnc1 | 229 to 231
85 | NNc1ccc(S(=O)(=O)Nc2cccc(Cl)c2)cc1[N+](=O)[O-] | 195 to 197
86 | Nc1cnc(-c2cccc(F)c2)nc1 | 112 to 114
87 | Cc1ccc(C(=O)C(=O)O)cc1 | 176 to 178
88 | Nc1cc(-c2cccs2)ncn1 | 222 to 224
89 | Cc1c(C(=O)O)cnn1C1CCCCC1 | 143 to 145
90 | CS(=O)(=O)Nc1cccc(Br)c1 | 113 to 115
91 | CC(=O)c1cc(Br)sc1C | 41 to 43
92 | CCOC(=O)CNCC(N)=O | 70 to 72
93 | O=S(=O)(NCCBr)c1ccccc1 | 54 to 56
94 | C=CC(=O)NC(=O)NC | 174 to 176
95 | CCCc1nc2ccccc2c(C(=O)O)c1CC | 222 to 224
96 | COc1ccc(CCl)cc1C#N | 99 to 101
97 | O=[N+]([O-])c1ccccc1CS(=O)(=O)Cl | 64 to 66

Row | Compound | melting point [°C]
98 | O=c1[nH]c(CCl)nc2ccsc12 | 190 to 193
99 | Nc1nc2ccccc2n1-c1ccccc1 | 148 to 150
100 | Cc1onc2c(=O)[nH]nc(-c3ccccc3)c12 | 235 to 237
101 | O=C(O)c1cc2cc(F)ccc2s1 | 207 to 209
102 | O=C(O)c1cc([N+](=O)[O-])ccc1I | 194 to 196
103 | Cc1ccc(C(C)C)c(Oc2ccc(C=O)cc2[N+](=O)[O-])c1 | 109 to 111
104 | O=C(O)CCCOc1ccc(I)cc1 | 126 to 128
105 | O=c1[nH]c2cc(Br)ccc2o1 | 209 to 211
106 | CN(C)c1ccc(-c2nc3ccccc3s2)cc1 | 171 to 173
107 | c1ccc(OCc2nc3ccccc3[nH]2)cc1 | 163 to 165
108 | Cc1n[nH]c(=O)c2noc(C)c12 | 213 to 215
109 | CC(N)c1nn[nH]n1 (configuration not stated) | 263 to 265
110 | CCCCn1c(N)c(NCc2ccccc2OC)c(=O)[nH]c1=O | 198 to 200
111 | O=C(O)c1ccc(NC(=O)C2CC2)s1 | 205 to 207
112 | OC1CCCc2c[nH]nc21 (configuration not stated) | 107 to 109
113 | O=C(Nc1ccc(O)cc1)c1ccsc1 | 207 to 209
114 | Cc1oc2cc(O)ccc2c(=O)c1-c1ccccc1Cl | 182 to 184
115 | O=C(O)CCS(=O)(=O)c1ccc2c(c1)OCCCO2 | 109 to 111
116 | N#CNC1=NCCCCC1 | 79 to 81
117 | O=C(O)c1cc(/C=C/c2ccc(Cl)cc2)nc2ccc(Br)cc12 | 320 to 322
118 | Cc1cc([N+](=O)[O-])sc1Br | 37 to 39
119 | O=C1OCc2ccc(S(=O)(=O)Cl)cc21 | 104 to 106
120 | O=C(O)c1ccccc1COc1ccccc1 | 126 to 128
121 | O=C(CC1CCCCC1)NC1CCC(C(=O)O)CC1 (configuration not stated) | 136 to 138
122 | Sc1nnnn1CC1CCCO1 (configuration not stated) | 28 to 30

Row | Compound | melting point [°C]
123 | Fc1ccc(COc2cccc(N3CCNCC3)c2)cc1 | 84 to 86
124 | c1cc(-c2ccsc2)n[nH]1 | 110 to 112
125 | O=C(O)c1cc(C2CC2)nn1-c1ccccc1 | 138 to 140
126 | O=C(O)Cc1csc(-c2cc(Br)cs2)n1 | 129 to 131
127 | N#CCCCn1cc(C(=O)O)nn1 | 164 to 166
128 | O=C(Nc1ccccc1F)C1CCc2ccccc2N1 (configuration not stated) | 96 to 98
129 | O=Cc1csc(-c2cccc(Br)c2)n1 | 99 to 101
130 | CSc1ccc(C=CC(=O)O)cc1 | 177 to 179
131 | Cc1c[nH]c(=O)n1-c1ccc(C(=O)O)cc1 | 285 to 287
132 | Cn1c(S)nnc1N1CCOCC1 | 194 to 196
133 | Cc1cc(C(=O)NCC(=O)O)c(C)o1 | 179 to 181
134 | O=C(O)C=Cc1ccc(OCc2ccccc2)cc1 | 141 to 143
135 | C#CCNC(=O)Nc1ccccc1[N+](=O)[O-] | 190 to 192
136 | NS(=O)(=O)c1ccc2c(c1)CCC(=O)N2 | 263 to 265
137 | O=C(NC1CCCC1)c1ccccc1O | 75 to 77
138 | Nc1cccc(OCCc2ccccc2)c1 | 139 to 141
139 | Nc1ccc2c[nH]nc2c1 | 204 to 206
140 | O=C(CO)NC1CCCc2ccccc21 (configuration not stated) | 114 to 116
141 | O=C(O)c1cc(-c2ccccc2)nc2cc(Br)ccc12 | 219 to 221
142 | CC(=O)c1ccc(Oc2ccc(C(=O)O)cc2)cc1 | 161 to 163
143 | O=C(O)Cc1ccc(NC(=O)c2cc3ccccc3o2)cc1 | 189 to 191
144 | O=C(O)c1n[nH]c2ccc(I)cc12 | 285 to 287
145 | O=C1NCCC=C1Cl | 76 to 78
146 | c1cc(-c2nnc[nH]2)ccn1 | 225 to 227
147 | O=C(O)C=Cc1ccc(Br)o1 | 125 to 135
